Patent US20210403443A1, “SUBSTITUTED 1,2,4-OXADIAZOLE, ITS APPLICATION AND A PHARMACEUTICAL PREPARATION COMPRISING IT” (SVENOX PHARMACEUTICALS LLC, priority 2018, published 2021)
In brackets after ≈: the same amount, converted by molar mass.

Tests used:
Experiment in all cases: microbe, parasite or virus in culture
Assay type in all cases: cell-based
Settings in all cases: for MIC: Mycobacterium tuberculosis, 336 h, read-out: Minimum inhibiting concentration of substances with general formula I
[1] = system: M. tuberculosis MDR strain 7357/1998
[2] = system: M. tuberculosis MDR strain Praha 1
[3] = system: M. tuberculosis MDR strain 9449/2007
[4] = system: M. tuberculosis MDR strain Praha 4
[5] = system: M. tuberculosis MDR strain 234/2005
[6] = system: M. tuberculosis MDR strain Praha 131
[7] = system: M. tuberculosis MDR strain 8666/2010

| SMILES | Minimum inhibiting concentration of commonly used antibiotics and antituberculosis medicaments [1] | strain resistant or sensitive to the drug [1] | Minimum inhibiting concentration of commonly used antibiotics and antituberculosis medicaments [2] | strain resistant or sensitive to the drug [2] | Minimum inhibiting concentration of commonly used antibiotics and antituberculosis medicaments [3] | strain resistant or sensitive to the drug [3] | Minimum inhibiting concentration of commonly used antibiotics and antituberculosis medicaments [4] | strain resistant or sensitive to the drug [4] | Minimum inhibiting concentration of commonly used antibiotics and antituberculosis medicaments [5] | strain resistant or sensitive to the drug [5] | Minimum inhibiting concentration of commonly used antibiotics and antituberculosis medicaments [6] [R μmol · l^−1] | strain resistant or sensitive to the drug [6] [R] | Minimum inhibiting concentration of commonly used antibiotics and antituberculosis medicaments [7] | strain resistant or sensitive to the drug [7] | also measured |
| --- | --- | --- | --- | --- | --- | --- | --- | --- | --- | --- | --- | --- | --- | --- | --- |
| NCC[C@H](O)C(=O)N[C@@H]1C[C@H](N)[C@@H](O[C@H]2O[C@H](CN)[C@@H](O)[C@H](O)[C@H]2O)[C@H](O)[C@H]1O[C@H]1O[C@H](CO)[C@@H](O)[C@H](N)[C@H]1O [Amikacin] | 0.85 C μmol · l^−1 | 0.85 C | 0.43 C μmol · l^−1 | 0.43 C | 0.43 C μmol · l^−1 | 0.43 C | 0.85 C μmol · l^−1 | 0.85 C | 0.43 C μmol · l^−1 | 0.43 C | >27.2 | >27.2 | 1.7 C μmol · l^−1 | 1.7 C |  |
| NNC(=O)c1ccncc1 [Isoniazid] | 14.6 R μmol · l^−1 | 14.6 R | 14.6 R μmol · l^−1 | 14.6 R | 58.3 R μmol · l^−1 | 58.3 R | 14.6 R μmol · l^−1 | 14.6 R | 14.6 R μmol · l^−1 | 14.6 R | 14.6 | 14.6 | 29.2 R μmol · l^−1 | 29.2 R |  |
| CC[C@@H](CO)NCCN[C@@H](CC)CO [Etambutol] | 19.6 R μmol · l^−1 | 19.6 R | 39.2 R μmol · l^−1 | 39.2 R | 9.8 C μmol · l^−1 | 9.8 C | 19.6 R μmol · l^−1 | 19.6 R | 19.6 R μmol · l^−1 | 19.6 R | 39.2 | 39.2 | 19.6 R μmol · l^−1 | 19.6 R |  |
| [H]/N=C(/N)N[C@H]1[C@H](O)[C@@H](O)[C@H](O[C@@H]2O[C@@H](C)[C@](O)(C=O)[C@H]2O[C@@H]2O[C@@H](CO)[C@H](O)[C@@H](O)[C@@H]2NC)[C@@H](N/C(N)=N\[H])[C@@H]1O [Streptomycin] | >27.5 R μmol · l^−1 | >27.5 R | 13.7 R μmol · l^−1 | 13.7 R | >27.5 R μmol · l^−1 | >27.5 R | >27.5 R μmol · l^−1 | >27.5 R | 27.5 R μmol · l^−1 | 27.5 R | >27.5 | >27.5 | >27.5 R μmol · l^−1 | >27.5 R |  |
| O=[N+]([O-])c1cc(CSc2nc(-c3ccc(F)cc3)no2)cc([N+](=O)[O-])c1 [Compound 8] |  |  |  |  |  |  |  |  |  |  |  |  |  |  | MIC [1]: 0.5 µM (≈ 0.188 µg/mL); MIC [2]: 0.5 µM (≈ 0.188 µg/mL); MIC [3]: 0.5 µM (≈ 0.188 µg/mL); MIC [4]: 0.5 µM (≈ 0.188 µg/mL); MIC [5]: 0.5 µM (≈ 0.188 µg/mL); MIC [6]: 0.5 µM (≈ 0.188 µg/mL); MIC [7]: 0.5 µM (≈ 0.188 µg/mL) |
| O=[N+]([O-])c1cc(CSc2nc(-c3ccc(Cl)cc3)no2)cc([N+](=O)[O-])c1 [Compound 4] |  |  |  |  |  |  |  |  |  |  |  |  |  |  | MIC [1]: 1 µM (≈ 0.393 µg/mL); MIC [2]: 2 µM (≈ 0.786 µg/mL); MIC [3]: 1 µM (≈ 0.393 µg/mL); MIC [4]: 0.5 µM (≈ 0.196 µg/mL); MIC [5]: 0.5 µM (≈ 0.196 µg/mL); MIC [6]: 1 µM (≈ 0.393 µg/mL); MIC [7]: 0.5 µM (≈ 0.196 µg/mL) |
| CC1COc2c(N3CCN(C)CC3)c(F)cc3c(=O)c(C(=O)O)cn1c23 (stereo not drawn) [Ofloxacin] | 11.1 R μmol · l^−1 | 11.1 R | 1.38 C μmol · l^−1 | 1.38 C | 2.75 C μmol · l^−1 | 2.75 C | >22.2 R μmol · l^−1 | >22.2 R | 0.69 C μmol · l^−1 | 0.69 C | 22.2 | 22.2 | 11.1 R μmol · l^−1 | 11.1 R |  |
